# Like-named read-outs stand apart in the source and are kept apart here.
# What was measured:
# [1] = parameters: method as in PMID 25384157; conditions: rats; cited from earlier work
# MDM2–p53 PPI = conditions: Figure 5a, template molecules; cited from earlier work
# [2] = test system: SJSA1 human osteosarcoma cells; conditions: cited from earlier work
# [3] = test system: xenograft models of human cancer; parameters: method as in PMID 26041888; conditions: two types of xenograft models, oral administration; cited from earlier work
# PC3 cells = experiment: MTT cytotoxicity assay, PC3 (p53 neg); assay type: cell-based
# Procedure: (§1) The synthesized compounds were tested for their ability to block the proliferation of the selected model cell lines: LNCaP (p53+), PC3 (p53-), HCT^wt (p53+), and HCT^−/− (p53-) cells. The assay was carried out using the standard MTT (3-(4,5-dimethylthiazol-2-yl)2,5-diphenyl tetrazolium bromide) assay based on the modified approach reported by Ferrari and colleagues. […] Differences in IC50 values against these cell lines were used to assess the selectivity of the compounds.
# (§2) Model cell lines were purchased from the in stock collection of the N.N. Blokhin Russian Cancer Research Center (RAMS). Cells were accurately maintained in the recommended media, supplemented with 10% heat-inactivated FBS (Invitrogen) and 2 mmol/L L-glutamine (Invitrogen).
# (§3) First, 4000 cells per well were plated out in 140 µL of DMEM (with 10% FBS) in 96-well plates and incubated in 5% CO2 for 24 h at 37 °C without treatment. […] The cells were treated for 48 h with […] (eight dilutions) concentrations of the substances (each in triplicate) or doxorubicin (0.3 nM–600 nM, eight dilutions) as a control substance. After the incubation, 15 µL of MTT solution in PBS (5 mg/mL) was added, and the cells were incubated for 2 h, followed by removal of the media and addition of 120 µL of DMSO. […] Cell survival rates were determined by the comparison of optical density with the corresponding untreated control cell culture. Dose-dependent curves and the corresponding IC50 values were calculated using “GraphPad Prism 6” software (GraphPad Software, Inc., San Diego, CA, USA).
# HCT^−/− cells = experiment: MTT cytotoxicity assay, HCT^−/− (p53 neg); assay type: cell-based; conditions: 48 h
# Procedure: as §1, §2, §3
# LNCaP cells = experiment: MTT cytotoxicity assay, LNCaP (p53 pos); assay type: cell-based; conditions: 48 h
# Procedure: as §1, §2, §3
# HCT^wt cells = experiment: MTT cytotoxicity assay, HCT^wt (p53 pos); assay type: cell-based; conditions: 48 h
# Procedure: as §1, §2, §3
# MDM2 = conditions: no reference given; cited from earlier work
# [4] = at 50 mg/kg, mice; cited from earlier work
# HCT116 = conditions: MTT tests; cited from earlier work
# LNCaP = conditions: MTT tests; cited from earlier work
# [5] = test system: LNCaP cells expressing AR; parameters: method as in PMID 22524527, PMID 11495595, PMID 20218717; conditions: Figure 3; cited from earlier work
# HepG2 cells = test system: HepG2 cells; parameters: method as in PMID 22524527, PMID 11495595, PMID 20218717; conditions: Figure 3; cited from earlier work
# [6] = parameters: method as in PMID 22524527, PMID 11495595, PMID 20218717; conditions: Figure 3; cited from earlier work
SMILES,IC50 (PC3 cells; 48 h),IC50 (HCT^−/− cells),IC50 (LNCaP cells),IC50 (HCT^wt cells),further results
CC[C@@H]([C@H](C)O)N1C(=O)[C@@](C)(CC(=O)O)C[C@H](c2cccc(Cl)c2)[C@H]1c1ccc(Cl)cc1 [AM-8553],,,,,oral bioavailability [1]: 100%
CC(C)(C)CC1NC(C(=O)NCCN)C(c2cccc(Cl)c2F)C12C(=O)Nc1cc(Cl)ccc12 (stereo not drawn) [XX],,,,,IC50 (MDM2–p53 PPI): 0.0094 µM
CC(C)(C)C[C@@H]1N[C@@H](C(=O)N[C@H]2C[C@@](C)(O)C2)[C@H](c2cccc(Cl)c2F)[C@]12C(=O)Nc1cc(Cl)ccc12 [MI-888],,,,,"IC50 [2]: ~0.09 µM; tumor regression [3]: rapid, complete, and durable tumor regression"
CN1C[C@H](c2cccc(Cl)c2)[C@]2(NC(=S)N(c3ccccc3)C2=O)[C@]12C(=O)Nc1ccc(Br)cc12 (racemic) [Compound 15],> 100 µM,> 100 µM,> 100 µM,> 100 µM,
CCc1ccc([C@H]2CN(C)[C@@]3(C(=O)Nc4ccccc43)[C@@]23NC(=S)N(c2ccc(F)c(Cl)c2)C3=O)cc1 (racemic) [Compound 46],> 100 µM,6.5 ± 3.6 µM,> 100 µM,6.3 ± 2.5 µM,
CN1C[C@H](c2cccc(C=O)c2)[C@]2(NC(=S)N(c3ccccc3)C2=O)[C@]12C(=O)Nc1ccc(Cl)cc12 (racemic) [Compound 24],> 100 µM,> 100 µM,> 100 µM,> 100 µM,
CC(C)(C)C[C@H]1N[C@@H](C(=O)NCC[C@H](O)CO)[C@H](c2cccc(Cl)c2)[C@@]12C(=O)Nc1cc(Cl)c(F)cc12.Cl [MI-219],,,,,Ki (MDM2): 0.005 µM; oral bioavailability [4]: 55–65%
CCOc1cc(C(C)(C)C)ccc1C1=N[C@@](C)(c2ccc(Cl)cc2)[C@@](C)(c2ccc(Cl)cc2)N1C(=O)N1CCN(CCCS(C)(=O)=O)CC1 [RG-7112],,,,,CC50 (HCT116): 0.54 ± 0.12 µM; CC50 (LNCaP): 0.18 µM
COc1ccc([C@H]2CN(C)[C@@]3(C(=O)Nc4ccccc43)[C@@]23NC(=S)N(c2ccc(F)c(Cl)c2)C3=O)cc1OC (racemic) [Compound 44],10.2 ± 2.3 µM,> 100 µM,8.6 ± 1.8 µM,35 ± 16.2 µM,
CN1C[C@H](c2ccccc2Cl)[C@]2(NC(=S)N(c3ccc(O)cc3)C2=O)[C@]12C(=O)Nc1ccc(Cl)cc12 (racemic) [Compound 55],15.1 ± 1.2 µM,> 100 µM,7 ± 1 µM,> 100 µM,
COc1cc(NC(=O)C[C@@]2(C)C[C@H](c3cccc(Cl)c3)[C@@H](c3ccc(Cl)c(F)c3)N([C@H](CS(=O)(=O)C(C)(C)C)C3CC3)C2=O)ccc1C(=O)O [AM-7209],,,,,IC50 [2]: 0.0016 µM
CN1C[C@H](c2ccc(F)cc2)[C@]2(NC(=S)N(c3ccc(Cl)cc3)C2=O)[C@]12C(=O)Nc1ccccc12 (racemic) [Compound 38],> 100 µM,> 100 µM,> 100 µM,> 100 µM,
CN1C[C@H](c2ccncc2)[C@]2(NC(=S)N(c3ccccc3)C2=O)[C@]12C(=O)Nc1ccc(Br)cc12 (racemic) [Compound 20],> 100 µM,> 100 µM,> 100 µM,> 100 µM,
CN1C[C@H](c2ccc(Cl)cc2)[C@]2(NC(=S)N(c3ccc(F)cc3)C2=O)[C@]12C(=O)Nc1ccc(Br)cc12 (racemic) [Compound 40],> 100 µM,> 100 µM,> 100 µM,> 100 µM,
COc1ccc(N2C(=O)[C@]3(NC2=S)[C@@H](c2cccc(Cl)c2)CN(C)[C@@]32C(=O)Nc3ccc(Br)cc32)cc1 (racemic) [Compound 33],> 100 µM,> 100 µM,> 100 µM,> 100 µM,
Cc1ccc(N2C(=S)N(c3ccc(C#N)c(C(F)(F)F)c3)C(=O)C23CCC3)cc1 [XVII],,,,,IC50 [5]: 0.124 µM

SMILES,IC50 (PC3 cells; 48 h),IC50 (HCT^−/− cells),IC50 (LNCaP cells),IC50 (HCT^wt cells),further results
N#Cc1cc(N2C(=O)C3(CCC3)N(c3ccc(C(=O)NCCCN4CCCC4)c(F)c3)C2=S)ccc1C(F)(F)F [XIX],,,,,IC50 (HepG2 cells): < 1 µM
COc1ccc([C@H]2CN(C)[C@@]3(C(=O)Nc4ccc(Cl)cc43)[C@@]23NC(=S)N(c2ccc(O)cc2)C3=O)cc1OC (racemic) [Compound 57],20 ± 6.9 µM,> 100 µM,17 ± 1 µM,> 100 µM,
CN1C[C@H](c2ccc(Cl)cc2)[C@]2(NC(=S)N(c3ccc(F)c(Cl)c3)C2=O)[C@]12C(=O)Nc1ccc(Cl)cc12 (racemic) [Compound 42],> 100 µM,> 100 µM,> 100 µM,> 100 µM,
C#CCN1C(=O)[C@]2(c3ccccc31)N(C)C[C@H](c1cccc(Cl)c1)[C@]21NC(=S)N(c2ccc(OC)c(Cl)c2)C1=O [Compound 69],,> 100 µM,,> 100 µM,"IC50 (PC3 cells; Homo sapiens, PC-3, 48 h): > 100 µM; IC50 (LNCaP cells; Homo sapiens, LNCaP): > 100 µM; melting point: 199 to 200 °C"
CN1C[C@H](c2ccc(Cl)cc2)[C@]2(NC(=S)N(c3ccc(O)cc3)C2=O)[C@]12C(=O)Nc1ccc(Cl)cc12 (racemic) [Compound 52],> 100 µM,> 100 µM,> 100 µM,> 100 µM,
CN1CC(c2ccccc2)C2(NC(=S)N(c3ccccc3)C2=O)C12C(=O)Nc1ccccc12 (stereo not drawn) [Compound 4],,> 100 µM,,> 100 µM,"IC50 (PC3 cells; Homo sapiens, PC-3, 48 h): > 100 µM; IC50 (LNCaP cells; Homo sapiens, LNCaP): > 100 µM; melting point: 211 to 212 °C"
CN1C[C@H](c2ccc(Cl)cc2)[C@]2(NC(=S)N(c3ccc(Cl)cc3)C2=O)[C@]12C(=O)Nc1ccc(Cl)cc12 (racemic) [Compound 37],> 100 µM,> 100 µM,> 100 µM,> 100 µM,
CN1C[C@H](c2ccccc2Cl)[C@]2(NC(=S)N(c3ccc(O)cc3)C2=O)[C@]12C(=O)Nc1ccccc12 (racemic) [Compound 53],> 100 µM,> 100 µM,> 100 µM,> 100 µM,
O=C1NC(=S)N[C@@]12O[C@H](CO)[C@@H](O)[C@H](O)[C@H]2O [XVIII],,,,,Ki [6]: 0.007 ± 0.0011 µM
"CN1CC(c2ccccc2Cl)C2(NC(=S)N(c3ccc(O)cc3)C2=O)C12C(=O)Nc1ccc(Br)cc12 (stereo not drawn) [Compound 54, 1-(4-hydroxyphenyl)-4’-(2-chlorophenyl)-1’-methyl-5’’’-bromo-2-thiooxodispiro[imidazolidine-4,3’-pyrrolidine-2’,3”-indoline]-2”,5-dione]",20 ± 8.4 µM,> 100 µM,9.5 ± 2.5 µM,> 100 µM,
CCOc1ccc(N2C(=O)[C@]3(NC2=S)[C@@H](c2ccc(F)cc2)CN(C)[C@@]32C(=O)Nc3ccccc32)cc1 (racemic) [Compound 30],> 100 µM,> 100 µM,> 100 µM,> 100 µM,
COc1ccc(N2C(=O)[C@]3(NC2=S)[C@@H](c2cccc(Cl)c2)CN(C)[C@@]32C(=O)Nc3ccccc32)cc1 (racemic) [Compound 32],> 100 µM,> 100 µM,> 100 µM,> 100 µM,
COc1ccc([C@H]2CN(C)[C@@]3(C(=O)Nc4ccccc43)[C@@]23NC(=S)N(c2ccc(F)c(Cl)c2)C3=O)cc1 (racemic) [Compound 41],> 100 µM,> 100 µM,> 100 µM,> 100 µM,
CC(c1ccccc1)N1C(=O)C2(NC1=S)C(c1ccc(Cl)cc1)CN(C)C21C(=O)Nc2ccc(Br)cc21 (mixture of isomers) [Compound 65],> 100 µM,> 100 µM,> 100 µM,> 100 µM,
CC(c1ccccc1)N1C(=O)C2(NC1=S)C(c1cccc(Cl)c1)CN(C)C21C(=O)Nc2ccc(Br)cc21 (mixture of isomers) [Compound 63],8.8 ± 3.1 µM,> 100 µM,3.4 ± 1.5 µM,8 ± 2.5 µM,
